Results reported in patent US10499642B2, “Isoxazoline-substituted benzamides and analogues as insecticides” (SYNGENTA PARTICIPATIONS AG, priority 2015, dated 2019).
Like-named read-outs stand apart in the source and are kept apart here.

Legend:
Format in all cases: in vivo
[1] = test system: Spodoptera littoralis; test: Spodoptera littoralis (Egyptian cotton leaf worm) cotton leaf disc test; conditions: foliar, 72 h, read-out: control (at least one of mortality, anti-feedant effect, and growth inhibition)
Description: Spodoptera littoralis (Egyptian Cotton Leaf Worm)
Cotton leaf discs were placed on agar in 24-well microtiter plates and sprayed with aqueous test solutions prepared from 10′000 ppm DMSO stock solutions. After drying the leaf discs were infested with five L1 larvae. The samples were assessed for mortality, anti-feedant effect, and growth inhibition in comparison to untreated samples 3 days after infestation. Control of Spodoptera littoralis by a test sample is when at least one of mortality, anti-feedant effect, and growth inhibition is higher than the untreated sample.

[2] = test system: Plutella xylostella; test: Plutella xylostella (diamond back moth) artificial diet test; conditions: 120 h, read-out: effect in at least one of the two categories (mortality or growth inhibition)
Description: Plutella xylostella (Diamond Back Moth):
(§1) 24-well microtiter plates with artificial diet were treated with aqueous test solutions prepared from 10′000 ppm DMSO stock solutions by pipetting. After drying, the plates were infested with L2 larvae (10 to 15 per well). The samples were assessed for mortality and growth inhibition in comparison to untreated samples 5 days after infestation. The following compounds gave an effect of at least 80% in at least one of the two categories (mortality or growth inhibition) at an application rate of 200 ppm: […]

[3] = test system: Diabrotica Balteata; test: Diabrotica balteata (corn root worm) maize sprout test; conditions: 96 h, read-out: effect in at least one of the two categories (mortality or growth inhibition)
Description: Diabrotica Balteata, (Corn Root Worm)
as §1, with “Maize sprouts, placed on an agar layer in 24-well” for “24-well”, “plates” for “plates with artificial diet”, “spraying.” for “pipetting.”, “(6” for “(10”, “10” for “15”, “4” for “5”

[4] = test system: Thrips tabaci; test: Thrips tabaci (onion thrips) sunflower leaf disc test; conditions: foliar, 144 h
Description: Thrips tabaci (Onion Thrips):
(§2) Sunflower leaf discs were placed on agar in 24-well microtiter plates and sprayed with aqueous test solutions prepared from 10′000 ppm DMSO stock solutions. After drying the leaf discs were infested with a thrips population of mixed ages. The samples were assessed for mortality 6 days after infestation.

[5] = test system: Tetranychus urticae; test: Tetranychus urticae (two-spotted spider mite) bean leaf disc test; conditions: foliar, 192 h
Description: Tetranychus urticae (Two-Spotted Spider Mite):
as §2, with “Bean” for “Sunflower”, “discs” for “discs were placed”, “were” for “and”, “mite” for “thrips”, “on mixed population (mobile stages) 8” for “6”

[6] = application rate 200 ppm, cotton leaf discs, L1 larvae, 3 days after infestation
[7] = application rate 200 ppm, artificial diet, L2 larvae, 5 days after infestation
[8] = application rate 200 ppm, maize sprouts, L2 larvae, 4 days after infestation
[9] = application rate 200 ppm, sunflower leaf discs, population of mixed ages, 6 days after infestation, read-out: mortality
[10] = application rate 200 ppm, bean leaf discs, mixed population (mobile stages), 8 days after infestation, read-out: mortality

Cc1cc(C2=NO[C@@](c3cc(Cl)c(F)c(Cl)c3)(C(F)(F)F)C2)ccc1C(=O)N(C(=O)OC(C)(C)C)C1CC(Cl)=NO1 (stereo partly drawn) [Compound A067, tert-butyl N-(3-chloro-4,5-dihydroisoxazol-5-yl)-N-[4-[(5S)-5-(3,5-dichloro-4-fluoro-phenyl)-5-(trifluoromethyl)-4H-isoxazol-3-yl]-2-methyl-benzoyl]carbamate]
≥ 80%: percent control (mortality, anti-feedant effect or growth inhibition) at 200 ppm [1] | percent effect (mortality or growth inhibition) at 200 ppm [2] | percent effect (mortality or growth inhibition) at 200 ppm [3] | mortality at 200 ppm [4] | mortality at 200 ppm [5]

CCOC(=O)C1=NOC(N(C=O)C(=O)c2ccc(C3=NO[C@@](c4cc(Cl)c(F)c(Cl)c4)(C(F)(F)F)C3)cc2C)C1 (stereo partly drawn) [Compound A006, ethyl 5-[[4-[(5S)-5-(3,5-dichloro-4-fluoro-phenyl)-5-(trifluoromethyl)-4H-isoxazol-3-yl]-2-methyl-benzoyl]-formyl-amino]-4,5-dihydroisoxazole-3-carboxylate]
≥ 80%: percent control (mortality, anti-feedant effect or growth inhibition) at 200 ppm [1] | percent effect (mortality or growth inhibition) at 200 ppm [2] | percent effect (mortality or growth inhibition) at 200 ppm [3] | mortality at 200 ppm [4]

Cc1cc(C2=NO[C@@](c3cc(Cl)c(F)c(Cl)c3)(C(F)(F)F)C2)ccc1C(=O)NC1CC(/C=N/O)=NO1 (some centres unmarked) [Compound A118]
≥ 80%: percent control (mortality, anti-feedant effect or growth inhibition) at 200 ppm [1] | percent effect (mortality or growth inhibition) at 200 ppm [2] | percent effect (mortality or growth inhibition) at 200 ppm [3] | mortality at 200 ppm [4] | mortality at 200 ppm [5]

Cc1cc(C2=NO[C@@](c3cc(Cl)c(F)c(Cl)c3)(C(F)(F)F)C2)ccc1C(=O)N[C@H]1CC(Br)=NO1 (single isomer, unassigned) [Compound A146]
≥ 80%: percent control (mortality, anti-feedant effect or growth inhibition) at 200 ppm [1] | percent effect (mortality or growth inhibition) at 200 ppm [2] | percent effect (mortality or growth inhibition) at 200 ppm [3] | mortality at 200 ppm [4] | mortality at 200 ppm [5]

CCOC1=NOC(N(C(=O)c2ccc(C3=NO[C@@](c4cc(Cl)c(F)c(Cl)c4)(C(F)(F)F)C3)cc2C)[C@H](C)c2ccc(OC)cc2)C1 (some centres unmarked) [Compound A131]
≥ 80%: percent control (mortality, anti-feedant effect or growth inhibition) at 200 ppm [1, 6] | percent effect (mortality or growth inhibition) at 200 ppm [2, 7] | percent effect (mortality or growth inhibition) at 200 ppm [3, 8] | mortality at 200 ppm [4, 9] | mortality at 200 ppm [5, 10]

COC1=NO[C@H](N(C(=O)OC(C)(C)C)C(=O)c2ccc(C3=NO[C@@](c4cc(Cl)c(Cl)c(Cl)c4)(C(F)(F)F)C3)cc2C)C1 (single isomer, unassigned) [Compound A152]
≥ 80%: percent control (mortality, anti-feedant effect or growth inhibition) at 200 ppm [1] | percent effect (mortality or growth inhibition) at 200 ppm [2] | percent effect (mortality or growth inhibition) at 200 ppm [3] | mortality at 200 ppm [4] | mortality at 200 ppm [5]

COCC1=NOC(N(C(=O)OC(C)(C)C)C(=O)c2ccc(C3=NO[C@@](c4cc(Cl)c(F)c(Cl)c4)(C(F)(F)F)C3)cc2C)C1 (some centres unmarked) [Compound A088]
≥ 80%: percent control (mortality, anti-feedant effect or growth inhibition) at 200 ppm [1] | percent effect (mortality or growth inhibition) at 200 ppm [2] | percent effect (mortality or growth inhibition) at 200 ppm [3] | mortality at 200 ppm [4] | mortality at 200 ppm [5]

COC1=NO[C@@H](NC(=O)c2ccc(C3=NO[C@@](c4cc(Cl)c(F)c(Cl)c4)(C(F)(F)F)C3)cc2C)C1 (single isomer, unassigned) [Compound A151]
≥ 80%: percent control (mortality, anti-feedant effect or growth inhibition) at 200 ppm [1] | percent effect (mortality or growth inhibition) at 200 ppm [2] | percent effect (mortality or growth inhibition) at 200 ppm [3] | mortality at 200 ppm [4] | mortality at 200 ppm [5]

Cc1cc(C2=NO[C@@](c3cc(Cl)c(F)c(Cl)c3)(C(F)(F)F)C2)ccc1C(=O)NC1CC(C(=O)O)=NO1 (some centres unmarked) [Compound A117]
≥ 80%: percent control (mortality, anti-feedant effect or growth inhibition) at 200 ppm [1] | percent effect (mortality or growth inhibition) at 200 ppm [2] | percent effect (mortality or growth inhibition) at 200 ppm [3] | mortality at 200 ppm [4] | mortality at 200 ppm [5]

CCS(=O)(=O)C1=NOC(NC(=O)c2ccc(C3=NO[C@@](c4cc(Cl)c(Cl)c(Cl)c4)(C(F)(F)F)C3)cc2C)C1 (some centres unmarked) [Compound A053]
≥ 80%: percent control (mortality, anti-feedant effect or growth inhibition) at 200 ppm [1] | percent effect (mortality or growth inhibition) at 200 ppm [2] | percent effect (mortality or growth inhibition) at 200 ppm [3] | mortality at 200 ppm [4] | mortality at 200 ppm [5]

CSC1=NOC(NC(=O)c2ccc(C3=NO[C@@](c4cc(Cl)c(SC)c(Cl)c4)(C(F)(F)F)C3)cc2C)C1 (stereo partly drawn) [Compound A020, 4-[(5S)-5-(3,5-dichloro-4-methylsulfanyl-phenyl)-5-(trifluoromethyl)-4H-isoxazol-3-yl]-2-methyl-N-(3-methylsulfanyl-4,5-dihydroisoxazol-5-yl)benzamide]
≥ 80%: percent control (mortality, anti-feedant effect or growth inhibition) at 200 ppm [1] | percent effect (mortality or growth inhibition) at 200 ppm [2] | percent effect (mortality or growth inhibition) at 200 ppm [3] | mortality at 200 ppm [4] | mortality at 200 ppm [5]

Cc1cc(C2=NO[C@@](c3cc(Cl)c(F)c(Cl)c3)(C(F)(F)F)C2)ccc1C(=O)N(C(=O)OC(C)(C)C)C1CC(COC2CCCCO2)=NO1 (some centres unmarked) [Compound A068]
≥ 80%: percent control (mortality, anti-feedant effect or growth inhibition) at 200 ppm [1, 6] | percent effect (mortality or growth inhibition) at 200 ppm [2, 7] | percent effect (mortality or growth inhibition) at 200 ppm [3, 8] | mortality at 200 ppm [4, 9] | mortality at 200 ppm [5, 10]

Cc1cc(C2=NO[C@@](c3cc(Cl)c(Cl)c(Cl)c3)(C(F)(F)F)C2)ccc1C(=O)NC1CC(OS(C)(=O)=O)=NO1 (stereo partly drawn) [Compound A135, [5-[[2-methyl-4-[(5S)-5-(3,4,5-trichlorophenyl)-5-(trifluoromethyl)-4H-isoxazol-3-yl]benzoyl]amino]-4,5-dihydroisoxazol-3-yl] methanesulfonate]
≥ 80%: percent control (mortality, anti-feedant effect or growth inhibition) at 200 ppm [1] | percent effect (mortality or growth inhibition) at 200 ppm [2] | percent effect (mortality or growth inhibition) at 200 ppm [3] | mortality at 200 ppm [4] | mortality at 200 ppm [5]

CCOC(=O)C1=NOC(NC(=O)c2ccc(C3=NO[C@@](c4cc(Cl)c(F)c(Cl)c4)(C(F)(F)F)C3)cc2C)C1 (stereo partly drawn) [Compound A007, ethyl 5-[[4-[(5S)-5-(3,5-dichloro-4-fluoro-phenyl)-5-(trifluoromethyl)-4H-isoxazol-3-yl]-2-methyl-benzoyl]amino]-4,5-dihydroisoxazole-3-carboxylate]
≥ 80%: percent control (mortality, anti-feedant effect or growth inhibition) at 200 ppm [1] | percent effect (mortality or growth inhibition) at 200 ppm [2] | percent effect (mortality or growth inhibition) at 200 ppm [3] | mortality at 200 ppm [4] | mortality at 200 ppm [5]

COC1=NO[C@@H](N(C(=O)OC(C)(C)C)C(=O)c2ccc(C3=NO[C@@](c4cc(Cl)c(Cl)c(Cl)c4)(C(F)(F)F)C3)cc2C)C1 (single isomer, unassigned) [Compound A153]
≥ 80%: percent control (mortality, anti-feedant effect or growth inhibition) at 200 ppm [1] | percent effect (mortality or growth inhibition) at 200 ppm [2] | percent effect (mortality or growth inhibition) at 200 ppm [3] | mortality at 200 ppm [4] | mortality at 200 ppm [5]

CCOC1=NO[C@@H](NC(=O)c2ccc(C3=NO[C@@](c4cc(Cl)cc(Cl)c4)(C(F)(F)F)C3)cc2C)C1 (single isomer, unassigned) [Compound A159]
≥ 80%: percent control (mortality, anti-feedant effect or growth inhibition) at 200 ppm [1] | percent effect (mortality or growth inhibition) at 200 ppm [2] | percent effect (mortality or growth inhibition) at 200 ppm [3] | mortality at 200 ppm [4] | mortality at 200 ppm [5]

Cc1cc(C2=NO[C@@](c3cc(Cl)cc(Cl)c3)(C(F)(F)F)C2)ccc1C(=O)N[C@H]1CC(OCC(F)(F)F)=NO1 (single isomer, unassigned) [Compound A157]
≥ 80%: percent control (mortality, anti-feedant effect or growth inhibition) at 200 ppm [1] | percent effect (mortality or growth inhibition) at 200 ppm [2] | percent effect (mortality or growth inhibition) at 200 ppm [3] | mortality at 200 ppm [4] | mortality at 200 ppm [5]

O=C(NC1CC(Br)=NO1)c1ccc(C2=NO[C@@](c3cc(Cl)cc(Cl)c3)(C(F)(F)F)C2)cc1Cl (some centres unmarked) [Compound A093]
≥ 80%: percent control (mortality, anti-feedant effect or growth inhibition) at 200 ppm [1] | percent effect (mortality or growth inhibition) at 200 ppm [2] | percent effect (mortality or growth inhibition) at 200 ppm [3] | mortality at 200 ppm [4] | mortality at 200 ppm [5]
